Measured values published in patent publication US8377935B2, “Substituted aminopropenyl piperidine or morpholine derivatives as novel inhibitors of histone deacetylase” (Janssen Pharmaceutica N.V., priority 2005, dated 2013).

Experiments:
[1] = Metabolic stability with rat hepatocytes cell culture; assay type: in vitro ADME; conditions: rat hepatocyte cell cultures, 5 μM
From the text: Metabolism of drugs means that a lipid-soluble xenobiotic or endobiotic compound is enzymatically transformed into (a) polar, water-soluble, and excretable metabolite(s). The major organ for drug metabolism is the liver. […] However, some metabolites may have enhanced activity or toxic effects. Thus drug metabolism may include both “detoxication” and “toxication” processes. One of the major enzyme systems that determine the organism's capability of dealing with drugs and chemicals is represented by the cytochrome P450 monooxygenases, which are NADPH dependent enzymes. Metabolic stability of compounds can be determined in vitro with the use of subcellular human tissue (see example C.5.a.). Here metabolic stability of the compounds is expressed as % of drug metabolised after 15 minutes incubation of these compounds with microsomes. Quantitation of the compounds was determined by LC-MS analysis. Metabolic stability of compounds can also be determined by calculating the half live of compounds in rat hepatocyte cells (see example C.5.b.). […]
Samples were prepared for LC-MS by addition of two volumes of DMSO. […] Of the resulting supernatant 50 μl was analysed by LC-MS. […]
Total injection volume of samples was 50 μL. […] The mass spectrometer was operated in positive ion mode in SIM adjusted to the mass of […] with a scan width of 1 Da for quantification purposes. […]

p21 promoter = assay: p21 induction capacity, cellular method (ZsGreen reporter in A2780 clones); assay type: cell-based, human; conditions: A2780 clones with p21 1300 bp promoter-ZsGreen reporter, 24 hours treatment, percentage of control
Method: A first method tests the capacity of compounds to induce p21 as the consequence of HDAC inhibition at the cellular level. […] The reporter gene is a fluorescent protein and the expression of the reporter gene is measured as the amount of fluorescent light emitted (see example C.6.a.). The second method is an in vivo method wherein mice are used for screening the pharmaceutical activity of a compound. The above described stably transformed tumour cells can be administered to mice in an amount sufficient to effect production of a tumour. After the tumour cells had sufficient time to form a tumour, a potentially active compound can be administered to the animals and the effect of said compound On the tumour cells is evaluated by measuring the expression of the reporter gene. […]
The A2780 selected clones were expanded and seeded at 10000 cells per well into 96-well plates. […] The p21 promoter activation leading to ZsGreen production and thus fluorescence, was monitored by the Ascent Fluoroskan (Thermo Labsystems, Brussels, Belgium).
For each experiment, controls (containing no drug) and a blank incubation (containing no cells or drugs) were run in parallel. […] For each sample, the value for p21 induction was expressed as the percentage of the value for p21 present in the control. […]

in vitro half-live [1]: 103 min
Structure (SMILES): O=C(NO)c1cnc(N2CCC(CNC(/C=C/c3ccccc3)CO)CC2)nc1 (centres unmarked) [Compound 1]
p21 induction (p21 promoter): significant induction (Percentage induction higher than 130% was defined as significant induction)
